# Target: T1, interaction of H-RASG12D with RAF (Homo sapiens, UniProt P01112, G12D)
# T1 construct: expressed in transfected cells; host or cells: HEK-293T
# Assay: Active RAS pull-down (GST-Raf-RBD) and western blot in HRASG12D-overexpressing HEK-293T cells
# Type: cell-based
# Details: for active RAS levels: 293T-HRASG12D cells, pull-down with RAF, western blot
# Description: The candidate molecules determined as a result of molecular dynamics studies were applied to HEK-293T cells at different concentrations in order to determine the cytotoxic and optimum doses for the cells. Optimum dose ranges were determined for each molecule. HEK-293T/HRASG12D cells were treated with Cerubidine […], one of these candidate molecules, and active RAS was examined due to the interaction of RAS protein in cells with RAF. In experiments carried out on this molecule; lysate was collected at different time points from cells treated with non-toxic concentrations of Cerubidine. Active RAS precipitation (Pull Down) and subsequent Western-blot experiments performed on these lysates were used to investigate the effect of Cerubidine molecule on active RAS at different time points for 12 hours in terms of G12D mutation specificity.
# In the said study, HEK-293T cells with high expression of RAS proteins carrying the G12D mutation were used to examine the effect of candidate ligands on the interaction of H-RASG12D with RAF. First of all, an “Active Ras Pull-Down and Detection Kit (Thermo)” was provided to detect the interaction of the active RAS protein with RAF, and therefore the active RAS proteins involved in this interaction. Since the working principle of the kit is based on the precipitation of RAS proteins interacting with RAF, immunoprecipitation experiments were performed accordingly, since the use of the kit within the scope of this experiment was suitable for the target.
# The isolated proteins were first treated with GTPyS and GDP, and then bound to the glutathione-containing column with GST-Raf-RBD. Then, the presence of the RAS protein was examined by western blot experiment in the samples collected by elution from the column.
# Then, established 293T-HRAS^G12D cells were treated with Cerubudine, one of the candidate molecules, at different doses (non-cytotoxic), and active RAS proteins were precipitated in the presence of RAF in the lysates collected from cells, following the kit protocol validated in FIG. 5. Then, active RAS, HRAS and RAS^G12D levels were analyzed by western blot at different time points.
# Here, HRASG12D overexpressed cell lines (HEK-293T/HRAS^G12D) were treated with increasing doses of Cerubudine and lysate was obtained for protein isolation at different time points (0.5 h, 1 h, 3 h, 12 h). Active RAS precipitation was performed using isolated proteins and RAS, RASG12D and HRAS protein levels were examined by Western blot. Within the scope of the results obtained, there was a decrease in active RAS protein levels depending on the dose increase, especially in the 12th hour treated samples. Cerubidine treatment in cell lines overexpressing HRASG12D reduced the interaction of active RAS protein with RAF.
smiles,measurement,setting,value
"COc1cccc2c1C(=O)c1c(O)c3c(c(O)c1C2=O)C[C@@](O)(C(C)=O)C[C@@H]3O[C@H]1C[C@H](N)[C@H](O)[C@H](C)O1 [Cerubidine, cerubidine]",reduction in G12D mutant HRAS versus wild type HRAS levels,"5 μM and 10 μM, western blot for active RAS, HRAS and RASG12D",not wild type HRAS levels
same,active RAS levels,5 μM,significant decrease
same,active RAS levels,10 μM,significant decrease
same,"effect on active RAS levels, dose and time of strongest effect","10 μM, at the end of 12 hours",most pronounced effect
same,interaction of active RAS protein with RAF,cell lines overexpressing HRASG12D,reduced
same,active RAS protein levels depending on the dose increase,"increasing doses, 12th hour treated samples, HEK-293T/HRASG12D",decrease
same,mutant specificity of decrease in active RAS levels (G12D specific antibody),membrane with G12D specific antibody,mutant specific

# Source: patent publication US20250049829A1, “NOVEL T[…] TARGETING THE H-RAS ISOFORM WITH G12D MUTATION INVOLVED IN CANCER FORMATION” (ISTANBUL MEDIPOL UNIVERSITESI, priority 2021, published 2025)
